# Measured values reported in patent publication US20150297772A1, “COMPOSITION FOR ODOR REMOVAL AND FRAGRANCE EMISSION COMPRISING COMPLEXES OF CUCURBITURIL AND FRAGRANCE” (POSTECH ACADEMY-INDUSTRY FOUNDATION, priority 2012, published 2015).
# Key:
# [1] = exchange of fragrant molecule for odor molecule in cucurbit[7]uril complex, evaluated by 1H-NMR; type: binding
# Procedure: Cucurbit[7]uril was dissolved in distilled water to obtain a 2 mM cucurbit[7]uril aqueous solution. Ethyl butyrate (2 mM), which is a fragrant material, was added to the solution to obtain a complex (cucurbit[7]uril:ethyl butyrate=1:1). The bonding of diallyldisulfide with cucurbituril according to the addition of diallyldisulfide, which is an odor material, and the release of ethyl butyrate according to the addition of diallyldisulfide were evaluated comparing the 1H-NMR peak of the complex after the addition of diallyldisulfide with the 1H-NMR peak of the complex before the addition of diallyldisulfide.
# (§1) Cucurbit[7]uril was dissolved in distilled water to obtain a 4 mM cucurbit[7]uril aqueous solution. Menthol (4 mM), which is a fragrant material, was added to the solution to obtain a complex (cucurbit[7]uril:menthol=1:1). The bonding of diaminohexane with cucurbituril according to the addition of diaminohexane, which is an odor material, and the release of menthol according to the addition of diaminohexane were evaluated comparing the 1H-NMR peak of the complex after the addition of diaminohexane with the 1H-NMR peak of the complex before the addition of diaminohexane.
# as §1, with “Hexanal” for “Menthol”, “(cucurbit[7]uril:hexanal=1:1).” for “(cucurbit[7]uril:menthol=1:1).”, “hexanal” for “menthol”
# [2] = complex formation of cucurbituril homologues with menthol, analyzed by 1H-NMR; type: binding; conditions: slurry with 11.8 mg menthol and 0.5 mL distilled water, molar ratio 1:1, dried complex
# Procedure: A complex was prepared by mixing 100 mg of cucurbit[7]uril and 11.8 mg of menthol at a molar ratio of 1:1. 79.5 mg of cucurbit[6]uril and 118.3 mg of cucurbit[8]uril were respectively put into two mortars, and 11.8 mg of menthol was added to each of the mortars. 0.5 mL of distilled water was added to form a slurry, and then the slurry was stirred for 10 minutes using a pestle to prepare a complex. The complex was dried in an oven at […] for 6 hours. The dried complex was analyzed by 1H-NMR.
# [3] = cited from earlier work
compound,measurement,setting,value
CCCC(=O)OCC [ethyl butyrate],release of ethyl butyrate from the complex (FIG. 3),"[1]; cucurbit[7]uril:ethyl butyrate=1:1, 2 mM aqueous solution, diallyldisulfide added",released from the complex
O=C1N2CN3C(=O)N4CN5C(=O)N6CN7C(=O)N8CN9C(=O)N%10CN%11C(=O)N%12CN%13C(=O)N%14CN%15C(=O)N%16CN1C1C2N2CN%17C(=O)N(CN%18C(=O)N(CN%19C(=O)N(CN%20C(=O)N(CN%21C(=O)N(CN%22C(=O)N(CN%23C(=O)N(CN1C2=O)C%16C%15%23)C%14C%13%22)C%12C%11%21)C%10C9%20)C8C7%19)C6C5%18)C4C3%17 (stereo not shown) [cucurbit[8]uril],complex formation with menthol (FIG. 2),[2],weakly makes a complex with menthol
NCCCCCCN [diaminohexane],bonding of diaminohexane with cucurbituril (FIG. 5),"[1]; added to cucurbit[7]uril:hexanal=1:1 complex, 4 mM aqueous solution",makes a complex with cucurbituril
same,bonding of diaminohexane with cucurbituril (FIG. 4),"[1]; added to cucurbit[7]uril:menthol=1:1 complex, 4 mM aqueous solution",makes a complex with cucurbituril
cucurbit[7]uril,complex formation with menthol (FIG. 2),[2],strongly makes a complex with menthol
same,solubility in water,[3],2˜3×10^−2 M
CC1CCC(C(C)C)C(O)C1 (stereo not shown) [menthol],release of menthol from the complex (FIG. 4),"[1]; cucurbit[7]uril:menthol=1:1, 4 mM aqueous solution, diaminohexane added",released from the complex
"C=CCSSCC=C [diallydisulfide, diallyldisulfide]",bonding of diallyldisulfide with cucurbituril (FIG. 3),"[1]; added to cucurbit[7]uril:ethyl butyrate=1:1 complex, 2 mM aqueous solution",makes a complex with cucurbituril
O=C1N2CN3C(=O)N4CN5C(=O)N6CN7C(=O)N8CN9C(=O)N%10CN%11C(=O)N%12CN1C1C2N2CN%13C(=O)N(CN%14C(=O)N(CN%15C(=O)N(CN%16C(=O)N(CN%17C(=O)N(CN1C2=O)C%12C%11%17)C%10C9%16)C8C7%15)C6C5%14)C4C3%13 (stereo not shown) [cucurbit[6]uril],complex formation with menthol (FIG. 2),[2],barely makes a complex with menthol
CCCCCC=O [hexanal],release of hexanal from the complex (FIG. 5),"[1]; cucurbit[7]uril:hexanal=1:1, 4 mM aqueous solution, diaminohexane added",released from the complex
